For orientation: IC50 means the concentration needed to halve the response being measured. Higher therefore signals weaker potency.

The target in one data set is hERG (Homo sapiens, UniProt Q12809). The data set is described as follows: hERG IC50.
Another data set deals with 2a HCV RNA replicon. Description: 2a HCV RNA replicon assay (FL-J6/JFH-5'C19Rluc2AUbi, luciferase). Particulars: Hepatitis C virus, read-out: 2a (%) Percent of virus activity remaining in the presence of the compound. The data set is classed as cell-based, Hepatitis C Virus genotype 2a. The source says: Plasmids. Bart79I, a high-efficiency subgenomic replicon of HCV (28), harbors the neomycin resistance gene (neo) and the HCV nonstructural proteins. The Bart-Luciferase plasmid, Bart79I-luc, was cloned from the Bart791 parent (29) and the pGL3-Basic parent (Promega). In brief, a NotI site was introduced after the 15th amino acid of Core in Bart791 using PCR mutagenesis. The plasmid pcDNA3.1-NS4B, which encodes the Con1 NS4B sequence and was used to study the protein stability of the wild type and mutant NS4Bs, was described previously. To introduce the M2 mutation into the 4BAH2 of plasmids encoding HCV replicons or NS4B, the nucleotide sequence GCG that encodes for alanine at NS4B amino acid position 51 was changed to GAG (encoding for glutamate) and the nucleotide sequence TGG that encodes for tryptophan at amino acid position 55 was changed to GAT (encoding for aspartate) through the use of Quick-ChangeTMXL site-directed mutagenesis kit (Stratagene, La Jolla, Calif.) as described by the manufacturer and confirmed by sequencing. FL-J6/JFH-5′C19Rluc2AUbi, which is a monocistronic, full-length HCV genome that expresses Renilla luciferase (Rluc) and was derived from the previously described infectious genotype 2a HCV genome J6/JFH1.
(§1) Antiviral Assays of Compounds. Subconfluent Huh7.5 cells were trypsinized and collected by centrifugation at 700 g for 5 min. The cells were then washed three times in ice-cold RNasefree PBS buffer (BioWhittaker) and resuspended at 1.5×10^7 cells·ml^−1 in PBS buffer. Wild-type FL-J6/JFH-5′C19Rluc2AUbi and Bart79I-luc RNAs for electroporation were generated by in vitro transcription of XbaI (FL-J6/JFH-5′C19Rluc2AUbi) and ScaI (Bart791-luc)-linearized DNA templates using the T7 MEGAscript kit (Ambion), followed by phenol-chloroform purification and DEPC water suspension, 5 μg of RNA were mixed with 400 μl of washed Huh7.5 cells in a 2-mm-gap cuvette (BTX) and immediately pulsed (0.82 kV (FL-J6/JFH-5′C19Rluc2AUbi) and 0.68 kV (Bart79I-luc), five […] pulses) with a BTX-830 electroporator. After 10 min recovery at 25° C., pulsed cells were diluted into 20 ml of pre-warmed growth medium. Cells from several electroporations were pooled to a common stock and seeded in 96-well plates (17,000-20,000 cells per well). After 24 hr, compounds were added to the cells and media changes were performed daily with fresh compounds. After 72 hr of treatment, cells were incubated for 2 hr at 37° C. in the presence of 10% Alamar Blue reagent (TREK Diagnostic Systems) to assess for cytotoxicity. Plates were then scanned and fluorescence was detected by using a FLEXstation II 384 (Molecular Devices). The signal was normalized relative to untreated samples. Viral RNA replication was determined using Renilla (FL-J6/JFH-5′C19Rluc2AUbi) or firefly (Bart791-luc) luciferase assays, according to the manufacturer's (Promega) directions. The same samples subjected to the viability assay described below were analyzed in this assay. According to the manufacturer protocol, cells were washed with PBS buffer and shaken at room temperature for 15 min in 20 μl of lysis buffer. Reporter assays were performed directly in the wells of the culture plates by injecting 100 μl of the assay substrate into each well. Luminescence was measured over 10 seconds with a 2-second delay using a Berthold LB 96 V luminometer. Signal was normalized relative to untreated samples or samples grown in the presence of the corresponding concentration of DMSO. Experiments were repeated three times, each time with 4 replicates.
On the technique in general: In antiviral work, replicon cells carry a viral genome segment that copies itself.

For the next data set, the system named is Huh7.5 cells. The data set is described as follows: Alamar Blue cell viability assay. In kind it is cell-based, human. The procedure:
as §1, with “Plates were then scanned and fluorescence was detected by using a FLEXstation II 384 (Molecular Devices).” left out
In general terms: The colour change of resazurin is a common sign of viable cells or microbes.

For a further data set, the system named is HCV 1b RNA replicon. Description: 1b HCV RNA replicon assay, Huh7 cell line with stable luciferase reporter. Particulars: Huh7, stable LUC reporter; for IC50: Hepatitis C virus, Huh-7. The data set is classed as cell-based, Hepatitis C Virus genotype 1b.

hERG, sequence (Q12809 whole entry): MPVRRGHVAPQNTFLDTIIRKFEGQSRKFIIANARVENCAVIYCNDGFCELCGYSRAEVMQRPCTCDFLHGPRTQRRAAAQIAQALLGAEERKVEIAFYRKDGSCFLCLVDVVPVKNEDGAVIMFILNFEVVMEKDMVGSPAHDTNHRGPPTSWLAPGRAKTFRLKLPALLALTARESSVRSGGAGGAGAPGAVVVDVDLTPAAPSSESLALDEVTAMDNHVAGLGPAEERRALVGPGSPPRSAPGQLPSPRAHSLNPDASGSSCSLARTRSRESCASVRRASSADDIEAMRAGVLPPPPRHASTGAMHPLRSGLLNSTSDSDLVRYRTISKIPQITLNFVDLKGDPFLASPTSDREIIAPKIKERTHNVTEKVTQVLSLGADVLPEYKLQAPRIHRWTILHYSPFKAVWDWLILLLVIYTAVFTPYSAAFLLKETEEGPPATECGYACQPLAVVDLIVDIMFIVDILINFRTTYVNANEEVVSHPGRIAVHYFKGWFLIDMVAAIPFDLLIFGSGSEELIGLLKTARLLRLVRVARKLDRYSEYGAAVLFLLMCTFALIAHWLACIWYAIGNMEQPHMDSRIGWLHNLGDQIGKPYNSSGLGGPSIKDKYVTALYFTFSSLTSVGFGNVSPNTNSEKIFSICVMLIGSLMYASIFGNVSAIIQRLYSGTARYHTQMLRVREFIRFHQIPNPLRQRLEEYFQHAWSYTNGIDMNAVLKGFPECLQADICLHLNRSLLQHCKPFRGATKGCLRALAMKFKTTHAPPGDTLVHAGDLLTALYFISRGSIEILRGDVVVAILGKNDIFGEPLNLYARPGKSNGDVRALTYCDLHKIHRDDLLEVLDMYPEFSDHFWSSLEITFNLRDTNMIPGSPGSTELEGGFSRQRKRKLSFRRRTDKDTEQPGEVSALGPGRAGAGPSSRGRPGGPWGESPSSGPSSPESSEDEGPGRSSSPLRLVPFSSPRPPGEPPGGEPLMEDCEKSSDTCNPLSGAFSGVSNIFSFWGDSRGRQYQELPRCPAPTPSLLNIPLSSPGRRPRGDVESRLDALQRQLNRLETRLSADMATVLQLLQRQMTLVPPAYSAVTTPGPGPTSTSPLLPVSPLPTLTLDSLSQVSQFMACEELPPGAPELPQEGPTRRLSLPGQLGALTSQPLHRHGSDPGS

Consider `CC(C)CN(C)c1nc(N)c(C(=O)Nc2cccnc2)nc1Cl.Cl` [ID 202, 3-amino-6-chloro-5-(isobutyl(methyl)amino)-N-(pyridin-3-yl)pyrazine-2-carboxamide hydrochloride], for which the half-inhibitory concentration (IC50) against hERG worked out at 1.5 µM. Also, in the data set on 2a HCV RNA replicon, the activity at 5 µM was 6% and the activity at 10 µM is 4%. Also, the “Cell Viability (%), alamar blue” value in the data set with Huh7.5 cells (5 μM) is on record as 48%. For the same compound, the “Cell Viability (%), alamar blue” value in the data set on Huh7.5 cells (10 μM) is on record as 43%.
Take `CC(C)CN(C)c1nc(N)c(C(=O)NC2CCCNC2)nc1Cl.O=C(O)C(F)(F)F` (stereo not shown) [ID 312, 3-amino-6-chloro-5-(isobutyl(methyl)amino)-N-(piperidin-3-yl)pyrazine-2-carboxamide 2,2,2-trifluoroacetate]: the IC50 is 4 µM against hERG and 44 µM in the data set on HCV 1b RNA replicon. In addition, the activity at 5 µM with 2a HCV RNA replicon came out at 21%. Moreover, in the data set on 2a HCV RNA replicon, the activity at 10 µM worked out at 9%. Further, the figures for the “Cell Viability (%), alamar blue” value in the data set on Huh7.5 cells (5 μM) and in the data set on Huh7.5 cells (10 μM) were 76% and 53%, respectively.
For the compound `CC(C)CN(C)c1nc(N)c(C(=O)NC2CCNCC2)nc1Cl.O=C(O)C(F)(F)F` [ID 319, 3-amino-6-chloro-5-(isobutyl(methyl)amino)-N-(piperidin-4-yl)pyrazine-2-carboxamide 2,2,2-trifluoroacetate], in the data set with HCV 1b RNA replicon, the 50% inhibitory concentration (IC50) came to 6.9 µM. Moreover, the activity at 5 µM in the data set with 2a HCV RNA replicon came out at 37%. Besides, the activity at 10 µM with 2a HCV RNA replicon is 11%. Besides, the “Cell Viability (%), alamar blue” value in the data set on Huh7.5 cells (5 μM) stood at 87%; with Huh7.5 cells (10 μM) it was 75%.
Turning to `CC(C)CN(C)c1nc(N)c(C(=O)NCC2CCCCC2)nc1Cl.O=C(O)C(F)(F)F` [ID 320, 3-amino-6-chloro-N-(cyclohexylmethyl)-5-(isobutyl(methyl)amino)pyrazine-2-carboxamide 2,2,2-trifluoroacetate], in the data set on HCV 1b RNA replicon, the “1b assay IC50” value was “inactive”. For the same compound, in the data set on 2a HCV RNA replicon, the activity at 5 µM worked out at 37% and the activity at 10 µM came to 17%. Further, the “Cell Viability (%), alamar blue” value with Huh7.5 cells (5 μM) is 80%. For the same compound, the “Cell Viability (%), alamar blue” value in the data set on Huh7.5 cells (10 μM) amounted to 59%.
`CC(C)CN(C)c1nc(N)c(C(=O)NCc2cccnc2)nc1Cl.O=C(O)C(F)(F)F` [ID 341, 3-amino-6-chloro-5-(isobutyl(methyl)amino)-N-(pyridin-3-ylmethyl)pyrazine-2-carboxamide 2,2,2-trifluoroacetate]: the “1b assay IC50” value in the data set with HCV 1b RNA replicon is “inactive”. For the same compound, in the data set with 2a HCV RNA replicon, the activity at 5 µM was 30% and the activity at 10 µM came to 15%. In addition, in the data set with Huh7.5 cells (5 μM), the “Cell Viability (%), alamar blue” value worked out at 77%. Also, the “Cell Viability (%), alamar blue” value with Huh7.5 cells (10 μM) is recorded as 65%.
Turning to `CC(C)CN(C)c1nc(N)c(C(=O)NCc2ccncc2)nc1Cl.O=C(O)C(F)(F)F` [ID 342, 3-amino-6-chloro-5-(isobutyl(methyl)amino)-N-(pyridin-4-ylmethyl)pyrazine-2-carboxamide 2,2,2-trifluoroacetate], in the data set on HCV 1b RNA replicon, the “1b assay IC50” value is “inactive”. Further, in the data set with 2a HCV RNA replicon, the activity at 5 µM turned out to be 22% and the activity at 10 µM is 12%. Also, the “Cell Viability (%), alamar blue” value in the data set with Huh7.5 cells (5 μM) worked out at 69%. In addition, the “Cell Viability (%), alamar blue” value in the data set with Huh7.5 cells (10 μM) was determined as 56%.
Consider `Cc1ccncc1NC(=O)c1nc(Cl)c(N2CCCCC2)nc1N` [ID 415, 3-amino-6-chloro-N-(4-methylpyridin-3-yl)-5-(piperidin-1-yl)pyrazine-2-carboxamide 2,2,2-trifluoroacetate], for which the “1b assay IC50” value with HCV 1b RNA replicon was “inactive”. The activity at 5 µM in the data set on 2a HCV RNA replicon was 27%. The activity at 10 µM with 2a HCV RNA replicon came to 10%. Further, the “Cell Viability (%), alamar blue” value with Huh7.5 cells (5 μM) was found to be 71%; in the data set on Huh7.5 cells (10 μM), 65%.
`Cc1ccncc1NC(=O)c1nc(Cl)c(NCC(C)C)nc1N` [ID 464, 3-amino-6-chloro-5-(isobutylamino)-N-(4-methylpyridin-3-yl)pyrazine-2-carboxamide 2,2,2-trifluoroacetate] came in with an IC50 at hERG greater than 10 µM. In the data set with 2a HCV RNA replicon, the activity at 5 µM worked out at 64%. For the same compound, the activity at 10 µM in the data set on 2a HCV RNA replicon stood at 44%. In addition, the “Cell Viability (%), alamar blue” value is 95% in the data set with Huh7.5 cells (5 μM) and 85% in the data set on Huh7.5 cells (10 μM).
Regarding `Cc1ccncc1NC(=O)c1nc(Cl)c(N(C)c2ccccc2)nc1N` [ID 465, 3-amino-6-chloro-5-(methyl(phenyl)amino)-N-(4-methylpyridin-3-yl)pyrazine-2-carboxamide 2,2,2-trifluoroacetate], the IC50 at hERG was greater than 10 µM. In the data set on 2a HCV RNA replicon, the activity at 5 µM is 60% and the activity at 10 µM turned out to be 31%. For the same compound, the “Cell Viability (%), alamar blue” value in the data set with Huh7.5 cells (5 μM) was 89%. Further, the “Cell Viability (%), alamar blue” value in the data set on Huh7.5 cells (10 μM) came out at 78%.
